Data: patent US5605700A (priority 1992, dated 1997)
pIC50: −log10 of the molar value. “Also recorded” adds a separate entry of the source. Values belong to the compound of their own block, whether it stands above or below them.

Assays:
[1] = test system: MDR MDA A-1 tumors; test: Doxorubicin cytotoxicity enhancement in MDR tumors; clonogenic assay of tumors excised from treated mice; assay type: in vivo, mouse; settings: for percent inhibition (clonogenic assay): all three tumors, doxorubicin 1 μg/ml 1 hour, 14 days
Procedure: Drug was applied dropwise to the skin surface directly and around the tumor. Each drop was allowed to evaporate completely. This treatment was administered once a day at the same time for a total of five days. […] Tumors were collected sterilely and processed for clonogenic assay.
The remaining portion was cloned following a 1 hour exposure to doxorubicin 1 μg/ml.

[2] = Tissue distribution of toremifene after single dose (500 μg) IP vs. topical; assay type: in vivo; settings: mouse, 0.5 mg
Procedure: Single dose toremifene was administered by IP as described above, or topically with DMSO/ETOH/methylcellulose/water as the diluents. […] Tissue samples were collected as above.
All blood samples were centrifuged at 1,000 g. […] Samples were collected and dried as described below. […] The brain samples required filtration with disposable syringe filters.
DMSO and methylcellulose were used as the diluents. […] This was trend noted in both serum and uterus.

[3] = test system: MCF-7 cells; test: Prevention of breast cancer (MCF-7) tumor growth by topical administration in the mouse; assay type: in vivo; settings: topical 500 μg, 15 days
Procedure: In this study 12 mice were transplanted with MCF-7 cells and were allowed to grow until a small tumor was detected in all mice (<1 mm^3). At that time mice were divided into three groups of four mice each. […] All mice received the same amount of diluent/day (20 μl ). The study was assessed following 15 days of treatment.

[4] = test system: spontaneous non-Hodgkin's lymphoma; test: Treatment of spontaneous non-Hodgkin's lymphoma in a baboon; assay type: in vivo
Procedure: Enlarged lymph nodes with diameters of 1-2 cm were evident in the both groins. Toremifene was dissolved in a. mixture of dimethylsulfoxide, ethanol and methylcellulose. […] On day 25 following start of treatment, topical therapy of right groin was re-instituted while continuing the oral treatment. […] The response to therapy was determined by measuring the sizes of the tumors on two perpendicular dimensions.

[5] = Plasma and tissue concentration of toremifene after topical administration in Monodelphis domestica; assay type: in vivo
Procedure: The dose was 0.5 mg/d in 3 and 1 mg/d in 3 animals.

[6] = test system: TD 36; test: Cytostatic effect in melanoma cell line TD 36; assay type: cell-based; settings: human cell line TD 36; read-out: IC-50 (50% growth inhibitory concentration)
[7] = test system: TD 30 A; test: Cytostatic effect in melanoma cell line TD 30 A; assay type: cell-based; settings: human cell line TD 30 A; read-out: IC-50 (50% growth inhibitory concentration)
[8] = test system: SD-MEL-31; test: Cytostatic effect in metastatic melanoma cell line SD-MEL-31 (text: SK-MEL-31); assay type: cell-based; settings: human cell line SD-MEL-31; read-out: IC-50 (50% growth inhibitory concentration)
Text: (§1) The metastatic melanoma cell line, SK-MEL-31, was obtained from the American Type Culture Collection (Rockville, Md.). Two additional human cell lines were derived from portions of surgigally-excised large diameter, superficial spreading melanomas. TD 1.4 was developed from a benign melanoma, whereas TD 7.2 and TD 8 were derived from melanocytic hyperplasias.

[9] = test system: TD 8; test: Cytostatic effect in experimental cell line TD 8; assay type: cell-based; settings: Monodelphis domestica, read-out: IC-50 (50% growth inhibitory concentration)
Text: as §1

[10] = test system: TD 1.4; test: Cytostatic effect in experimental cell line TD 1.4; assay type: cell-based; settings: Monodelphis domestica, read-out: IC-50 (50% growth inhibitory concentration)
Text: as §1

[11] = test system: TD 7.2; test: Cytostatic effect in experimental cell line TD 7.2; assay type: cell-based; settings: Monodelphis domestica, read-out: IC-50 (50% growth inhibitory concentration)
Text: as §1

[12] = test system: six cell lines of melanocyte origin; test: Cytostatic effect in all six cell lines of melanocyte origin; assay type: cell-based, human and Monodelphis domestica
Text: as §1

[13] = test system: MDR-positive cells; settings: cited from earlier work; for multidrug resistance reversal / chemosensitizing activity: in vitro
[14] = cited from earlier work; for concentration: following large oral doses, read-out: plasma concentration
[15] = test system: estrogen receptor (ER) positive metastatic breast cancer; settings: cited from earlier work
[16] = test system: estrogen receptors (ER's); settings: cited from earlier work
[17] = Tissue distribution of toremifene and metabolites after 5 days IP vs. topical toremifene (HPLC), mice with MDA A-1 tumors; settings: for concentration at 2 h: mouse
Procedure: Sixteen female athymic nude mice were injected with a 20-gauge needle subcutaneously with 5×10^6 MDA A-1 cells in the left scapular area. The tumors were allowed to grow for three weeks prior to treatment.
Each of the three mice were injected IP using an 18 gauge needle with 50 μl, delivering 1 mg/day for five days. […] All mice were sacrificed on the fifth day of treatment two hours after the final dose. Blood specimens were collected by capillary pipette after disruption of axillary vessels and placed into heparinized centrifuge tubes. The brains, livers, and uterus were removed surgically and placed in separate tubes.
All blood samples were centrifuged at 1,000 g. The plasma was collected, measured for volume, and placed in clean extraction tubes. All remaining tissue samples were weighed, placed in extraction tubes, and spiked with an internal standard, nafoxidine. The tissues were thoroughly homogenized before the addition of 6 ml extraction fluid. Samples were collected and dried as described below. Before injection onto the HPLC column, each sample was reconstituted with 200 μl methanol. All samples were placed in a quartz cuvette for UV activation. The brain samples required filtration with disposable syringe filters.

[18] = oral 1 g on days 15, 17, 19 and 23
[19] = right inguinal lymphoma, topical re-instituted while continuing oral
[20] = brain, topical or ocular, 2.5 mg/day
[21] = liver, topical or ocular, 2.5 mg
[22] = serum, topical or ocular, 2.5 mg
[23] = tumor, topical or ocular, 2.5 mg
[24] = uterus, topical or ocular, 2.5 mg

SMILES: COc1cccc2c1C(=O)c1c(O)c3c(c(O)c1C2=O)C[C@@](O)(C(=O)CO)C[C@@H]3O[C@H]1C[C@H](N)[C@H](O)[C@H](C)O1 [doxorubicin]
sensitivity of tumor to doxorubicin without toremifene ([1]; mouse not treated with toremifene (FIG. 2)): resistant

SMILES: CN(C)CCOc1ccc(/C(=C(/CCCl)c2ccccc2)c2ccccc2)cc1 [toremifene]
concentration at 2 h ([2]; serum, ip, Serum toremifene concentration): 90 ng/mL | concentration at 2 h ([2]; serum, topical or ocular, Serum toremifene concentration, topical in DMSO): 30 ng/mL | concentration at 2 h ([2]; serum, topical or ocular, Serum toremifene concentration, topical in methylcellulose (MC)): 20 ng/mL | concentration at 2 h ([2]; tumor, ip, Tumor toremifene concentration): 2570 ng/g | concentration at 2 h ([2]; tumor, topical or ocular, Tumor toremifene concentration, topical in DMSO): 4650 ng/g | concentration at 2 h ([2]; tumor, topical or ocular, Tumor toremifene concentration, topical in methylcellulose (MC)): 1800 ng/g | concentration at 2 h ([2]; uterus, ip, Uterus toremifene concentration): 23600 ng/g | concentration at 2 h ([2]; uterus, topical or ocular, Uterus toremifene concentration, topical in DMSO): 920 ng/g | concentration at 2 h ([2]; uterus, topical or ocular, Uterus toremifene concentration, topical in methylcellulose (MC)): 1100 ng/g | effect on tumor growth [3]: prevented tumor growth | percent inhibition (clonogenic assay) ([1]; intraperitoneal toremifene): < 30% | percent inhibition (clonogenic assay) ([1]; topical toremifene): > 30% | sensitization of tumors to doxorubicin ([1]; topical toremifene, cloning studies (FIG. 2)): appears to sensitize these MDR MDA A-1 tumors to doxorubicin | left inguinal lymphoma during oral therapy [4, 18]: stabilized | right inguinal lymphoma during oral therapy [4, 18]: begun to regrow | response of lymphoma to topical toremifene ([4]; right inguinal lymphoma, 1.4 g topical over 8 days): clear response | tumor area after reinstituted topical therapy [4, 19]: 24 mm^2 | tumor area before reinstituted topical therapy [4, 19]: 476 mm^2 | in vivo antitumor response ([4]; topical, regional T-cell lymphoma): can produce an in vivo antitumor response | mean concentration of toremifene in brain ([5]; topical 0.5 mg/day for 5 days): 0.82 ± 0.99 nmol/g | mean concentration of toremifene in skin ([5]; topical 0.5 mg/day for 5 days): 1296.40 ± 1003.93 nmol/g | mean concentration of toremifene in brain ([5]; topical 1 mg/day for 5 days): 0.82 ± 0.62 nmol/g | mean concentration of toremifene in skin ([5]; topical 1 mg/day for 5 days): 1237.35 ± 768.90 nmol/g | Toremifene concentration in skin as compared to other tissues ([5]; topical 0.5 and 1 mg/day for 5 days): more than 500 fold | pIC50 [6]: 5.24 | pIC50 [7]: 5.11 | pIC50 [8]: 5.09 | pIC50 [9]: 5.11 | pIC50 [10]: 5.03 | pIC50 [11]: 5.02 | pIC50 ([12]; Melanocyte, all six cell lines, read-out: range of IC-50s): 5.02 to 5.24 | cytostatic effect ([12]; human and experimental melanomatous cell lines in vitro): clear cytostatic effect | concentration that reverses resistance in vitro ([13]; achievable in vivo following oral therapy): 5 µM | multidrug resistance reversal / chemosensitizing activity [13]: have chemosensitizing activity in MDR-positive cells | concentration [14]: ~10 µM | systemic toxicity ([14]; high-dose toremifene (400 mg/day)): generally confined to vertigo, nausea and hot flashes

SMILES: CC/C(=C(\c1ccccc1)c1ccc(OCCN(C)C)cc1)c1ccccc1 [tamoxifen]
fraction of patients with temporary remission ([15]; ER positive metastatic breast cancer): About two-thirds | endometrial toxicity ([15]; adjuvant therapy, women): increased risk of developing endometrial neoplasms; also recorded: endometrial dysplasia, bleeding, polyp formation and tumors | estrogen receptor antagonism ([16]; inhibition of estrogen-induced growth): competitive antagonism of tumor estrogen receptors

SMILES: COc1ccc(CCN(C)CCCC(C#N)(c2ccc(OC)c(OC)c2)C(C)C)cc1OC (stereo not drawn) [verapamil]
multidrug resistance reversal / chemosensitizing activity [13]: shown to reverse multidrug resistance in vitro

Topical/IP brain concentration ratio ([17]; brain, topical 2.5 mg/day vs IP 1 mg/day, 5 days, listed as Trans 4-hydroxytoremifene): 1.00 | Topical/IP brain concentration ratio ([17]; brain, topical 2.5 mg/day vs IP 1 mg/day, 5 days, listed as trans 4-hydroxytoremifene): identical | Topical/IP liver concentration ratio ([17]; liver, topical 2.5 mg/day vs IP 1 mg/day, 5 days): 1.63 | concentration at 2 h ([17]; brain, ip, 1 mg/day): 350 ng/g | concentration at 2 h [17, 20]: 350 ng/g | concentration at 2 h ([17]; liver, ip, 1 mg): 600 ng/g | concentration at 2 h [17, 21]: 980 ng/g | concentration at 2 h ([17]; serum, ip, 1 mg): 160 ng/mL | concentration at 2 h [17, 22]: 100 ng/mL | concentration at 2 h ([17]; tumor, ip, 1 mg): 880 ng/g | concentration at 2 h [17, 23]: 2330 ng/g | concentration at 2 h ([17]; uterus, ip, 1 mg): 830 ng/g | concentration at 2 h [17, 24]: 700 ng/g | Topical/IP serum concentration ratio ([17]; serum, topical 2.5 mg/day vs IP 1 mg/day, 5 days, listed as Trans 4-hydroxytoremifene): 0.63 | Topical/IP serum concentration ratio ([17]; serum, topical 2.5 mg/day vs IP 1 mg/day, 5 days, listed as trans 4-hydroxytoremifene): lower | Topical/IP tumor concentration ratio ([17]; tumor, topical 2.5 mg/day vs IP 1 mg/day, 5 days, listed as Trans 4-hydroxytoremifene): 2.65 | Topical/IP tumor concentration ratio ([17]; tumor, topical 2.5 mg/day vs IP 1 mg/day, 5 days, listed as trans 4-hydroxytoremifene): greater concentrations | Topical/IP uterus concentration ratio ([17]; uterus, topical 2.5 mg/day vs IP 1 mg/day, 5 days): 0.84
SMILES: CN(C)CCOc1ccc(/C(=C(/CCCl)c2ccccc2)c2ccc(O)cc2)cc1 [4-hydroxytoremifene, 4-chloro-1-(4-hydroxyphenyl)-2-phenyl-1-[4-[2-(N, N-dimethylamino)ethoyoxy]phenyl]-1-butene]
effect on tumor growth [3]: prevented tumor growth | mice that developed a tumor ([3]; four mice per group, all four control mice had tumors >6×8 mms): only one mouse | multidrug resistance reversal / chemosensitizing activity [13]: have chemosensitizing activity in MDR-positive cells | antiestrogenic potency among metabolites [16]: most potent antiestrogenic metabolite

concentration at 2 h ([17]; brain, ip, 1 mg/day): 490 ng/g | concentration at 2 h [17, 20]: 290 ng/g | concentration at 2 h ([17]; liver, ip, 1 mg): 940 ng/g | concentration at 2 h [17, 21]: 920 ng/g | concentration at 2 h ([17]; serum, ip, 1 mg): 180 ng/mL | concentration at 2 h [17, 22]: 80 ng/mL | concentration at 2 h ([17]; tumor, ip, 1 mg): 1270 ng/g | concentration at 2 h [17, 23]: 8430 ng/g | concentration at 2 h ([17]; uterus, ip, 1 mg): 1180 ng/g | concentration at 2 h [17, 24]: 560 ng/g
SMILES: CNCCOc1ccc(C(=C(CCCl)c2ccccc2)c2ccccc2)cc1 [N-demethyltoremifene, 4-chloro-1,2-diphenyl-[4-[2-(N-methylamino)ethoxy-]phenyl]-1-butene]
multidrug resistance reversal / chemosensitizing activity [13]: have chemosensitizing activity in MDR-positive cells | concentration [14]: ~10 µM
